Data: US20230348362A1, “LIPID COMPOUNDS AND LIPID NANOPARTICLE COMPOSITIONS” (Suzhou Abogen Biosciences Co., Ltd., priority 2021, published 2023)

Assays:
Format in all cases: physicochemical
[1] = Apparent pKa of LNP formulations, TNS fluorescence assay; conditions: LNP cationic lipid/DSPC/cholesterol/DMG-PEG 50/10/38.5/1.5 mol %
Summary of the method: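 LNPs (cationic lipid/DSPC/cholesterol/DMG-PEG 50/10/38.5/1.5 mol %) diluted to 0.1 mg/mL total lipid in citrate/phosphate/borate/NaCl buffers spanning pH 3–9 with TNS. Fluorescence (ex 325, em 435 nm) read at room temperature; pKa taken as the pH at half-maximal intensity from sigmoidal fit.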

[2] = Lipid nanoparticle size and polydispersity by dynamic light scattering; conditions: LNP of lipid/DSPC/cholesterol/PEG-lipid 50:10:38.5:1.5 encapsulating hEPO mRNA
Summary of the method: (§1)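 LNPs made from ionizable lipid/DSPC/cholesterol/PEG-lipid (50:10:38.5:1.5) and mRNA in citrate pH 4 by microfluidic mixing, lipid:mRNA about 10:1–30:1 w/w, then dialysed into DPBS and filtered. Size and PDI measured by DLS in backscatter mode; encapsulation efficiency measured by RiboGreen assay.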

[3] = Encapsulation efficiency of lipid nanoparticles, Quant-it Ribogreen RNA assay; conditions: LNP of lipid/DSPC/cholesterol/PEG-lipid 50:10:38.5:1.5 encapsulating hEPO mRNA
Summary of the method: as §1

Row | Apparent Pka [1] | polydispersity [2] | size (nm) [2] | Encapsulation Efficiency [3] | Compound
1 | 6.226 | 0.090 | 69.05 nm | 91.77% | CCCCCCCCC(CCCCCCCC)COC(=O)CCCCCN(CCO)CCN(CCCCCOC(=O)N(CCCCCCCC)CCCCCCCC)C1CCCCC1 [Compound 127]
2 | 6.539 | 0.093 | 60.57 nm | 92.31% | CCCCCCCCCCCOC(=O)CCCCCN(CCN(CCO)CCCCCOC(=O)OCC(CCCCCCCC)CCCCCCCC)C1CCCCC1 [Compound 128]
3 | 6.255 | 0.121 | 56.62 nm | 92.18% | CCCCCCCCCCCCCCCCOC(=O)CCCCCN(CCN(CCO)CCCCCC(=O)OCC(CCCCCCCC)CCCCCCCC)C1CCCCCCC1 [Compound 131]
4 | 5.990 | 0.267 | 74.57 nm | 94.56% | CCCCCCCCC(CCCCCCCC)COC(=O)CCCCCN(CCO)CCN(CCCCCOC(=O)OCC(CCCCCCCC)CCCCCCCC)C1CCCCC1 [Compound 133]
5 | 6.831 | 0.040 | 84.74 nm | 88.64% | CCCCCCCCC(CCCCCC)CNC(=O)CCCCCN(CCO)CCN(CCCCC(COC(=O)CCCCCCC)COC(=O)CCCCCCC)C1CCC1 (stereo not shown) [Compound 136]
6 | 6.494 | 0.040 | 67.32 nm | 89.36% | CCCCCCCCC(CCCCCC)COC(=O)CCCCCN(CCO)CCN(CCCCC(COC(=O)CCCCCCC)COC(=O)CCCCCCC)C1CCCC1 (stereo not shown) [Compound 137]
7 | 6.475 | 0.128 | 63.69 nm | 88.11% | CCCCCCCC(=O)OCC(CCCCN(CCO)CCN(CCCCC(COC(=O)CCCCCCC)COC(=O)CCCCCCC)C1CCCCC1)COC(=O)CCCCCCC [Compound 141]
8 | 6.218 | 0.055 | 71.85 nm | 87.29% | CCCCCCCCC(CCCCCC)COC(=O)CCCCCN(CCO)CCN(CCCCC(COC(=O)CCCCCCC)COC(=O)CCCCCCC)C1CCCCCC1 (stereo not shown) [Compound 142]
9 | 6.687 | 0.057 | 69.16 nm | 90.39% | CCCCCCCCC(CCCCCC)CNC(=O)CCCCCN(CCO)CCN(CCCCC(COC(=O)CCCCCCC)COC(=O)CCCCCCC)C1CCCCCC1 (stereo not shown) [Compound 143]
10 | 6.182 | 0.099 | 68.28 nm | 84.58% | CCCCCCCCC(CCCCCC)COC(=O)CCCCCN(CCO)CCN(CCCCC(COC(=O)CCCCCCC)COC(=O)CCCCCCC)C1CCCCCCC1 (stereo not shown) [Compound 144]
11 | 6.62 | 0.058 | 85.76 nm | 88.17% | CCCCCCCCC(CCCCCC)CC(=O)OCCCCCN(CCO)CCN(CCCCCN(C)C(=O)CC(CCCCCC)CCCCCCCC)C1CCCCCC1 (stereo not shown) [Compound 147]
12 | 6.586 | 0.076 | 76.37 nm | 91.34% | CCCCCCCCC(CCCCCC)CNC(=O)CCCCCN(CC=C(C)C)CCN(CCO)CCCCC1COC(C(CCCCCC)CCCCCCCC)OC1 (stereo not shown) [Compound 150]
13 | 6.368 | 0.064 | 61.84 nm | 92.43% | CCCCCCCCC(CCCCCC)COC(=O)CCCCCN(CC=C(C)C)CCN(CCO)CCCCC1COC(C(CCCCCC)CCCCCCCC)OC1 (stereo not shown) [Compound 151]
14 | 6.646 | 0.031 | 83.28 nm | 91.68% | CCCCCCCC/C=C\CCCCCCCC(=O)OCCCCCN(CCO)CCN(CCCCCNC(=O)CC(CCCCCC)CCCCCCCC)C1CCCCCC1 (stereo not shown) [Compound 152]
15 | 6.437 | 0.048 | 73.95 nm | 93.09% | CCCCCCCCC(CCCCCCCC)COC(=O)OCCCCCN(CCO)CCN(CCCCCNC(=O)CC(CCCCCC)CCCCCCCC)C1CCCCCC1 (stereo not shown) [Compound 153]
16 | 6.061 | 0.101 | 56.95 nm | 87.11% | CCCCCCCCC(CCCCCC)COC(=O)CCCCCN(CCO)CCN(CCCCC(COC(=O)CCCCCCC)COC(=O)CCCCCCC)C1CC1 (stereo not shown) [Compound 154]
17 | 6.28 | 0.071 | 70.67 nm | 89.57% | CCCCCCCCC(CCCCCC)CNC(=O)CCCCCN(CCO)CCN(CCCCC(COC(=O)CCCCCCC)COC(=O)CCCCCCC)C1CC1 (stereo not shown) [Compound 155]
18 | 6.674 | 0.112 | 88.09 nm | 95.04% | CCCCCCCCC(CCCCCC)COC(=O)CCCCCN(CC)CCN(CCO)CCCCC(COC(=O)CCCCCCC)COC(=O)CCCCCCC (stereo not shown) [Compound 157]
19 | 6.02 | 0.090 | 72.08 nm | 87.54% | CCCCCCCC(=O)OCC(CCCCN(CCO)CCN(CCCCC(COC(=O)CCCCCCC)COC(=O)CCCCCCC)C1CCCCCCC1)COC(=O)CCCCCCC [Compound 161]

The next lines start with the molecule.

Row | Compound | Apparent Pka [1] | polydispersity [2] | size (nm) [2] | Encapsulation Efficiency [3]
20 | CCCCCCCCCCCCCCCCCCOC(=O)CCCCCN(CCN(CCO)CCCCCC(=O)OCC(CCCCCCCC)CCCCCCCC)C1CCCCC1 [Compound 105] | 6.328 | 0.051 | 69.11 nm | 93.35%
21 | CCCCCCCCCCCOC(=O)CCCCCN(CCN(CCO)CCCCCC(=O)OCC(CCCCCCCC)CCCCCCCC)C1CCCCCC1 [Compound 107] | 6.411 | 0.121 | 55.62 nm | 93.22%
22 | CCCCCCCC/C=C\CCCCCCCC(=O)OCCCCCN(CCN(CCO)CCCCCC(=O)OCC(CCCCCCCC)CCCCCCCC)C1CCCCC1 [Compound 109] | 6.348 | 0.032 | 78.27 nm | 92.54%
23 | CCCCCCCCC(CCCCCCCC)COC(=O)CCCCCN(CCN(CCO)CCOCCC(=O)OCC(CCCCCCCC)CCCCCCCC)C1CCC1 [Compound 110] | 6.293 | 0.042 | 84.07 nm | 93.11%
24 | CCCCCCCCC(CCCCCCCC)COC(=O)CCCCCN(CCN(CCO)CCOCCC(=O)OCC(CCCCCCCC)CCCCCCCC)C1CCCCC1 [Compound 111] | 6.108 | 0.069 | 76.24 nm | 92.05%
25 | CCCCCCCCC(CCCCCCCC)COC(=O)CCOCCN(CCO)CCN(CCOCCC(=O)OCC(CCCCCCCC)CCCCCCCC)C1CCC1 [Compound 112] | 6.343 | 0.059 | 77.33 nm | 93.15%
26 | CCCCCCCCC(CCCCCCCC)COC(=O)CCOCCN(CCO)CCN(CCOCCC(=O)OCC(CCCCCCCC)CCCCCCCC)C1CCCCC1 [Compound 113] | 6.364 | 0.012 | 89.42 nm | 92.93%
27 | CCCCCCCCCCCOC(=O)CCOCCN(CCN(CCO)CCOCCC(=O)OCC(CCCCCCCC)CCCCCCCC)C1CCC1 [Compound 116] | 6.826 | 0.102 | 77.45 nm | 87.45%
28 | CCCCCCCCC(CCCCCCCC)COC(=O)CCCCCN(CCO)CCN(CCCCCC(=O)OCC(CCCCCCCC)CCCCCCCC)CCC(C)C [Compound 118] | 6.044 | 0.121 | 57.96 nm | 94.10%
29 | CCCCCCCCC(CCCCCCCC)COC(=O)CCOCCN(CC=C(C)C)CCN(CCO)CCOCCC(=O)OCC(CCCCCCCC)CCCCCCCC [Compound 120] | 6.546 | 0.043 | 75.42 nm | 94.33%
30 | CCCCCCCCC(CCCCCCCC)CNC(=O)CCCCCN(CC=C(C)C)CCN(CCO)CCCCCC(=O)OCC(CCCCCCCC)CCCCCCCC [Compound 121] | 6.583 | 0.077 | 70.01 nm | 93.23%
31 | CCCCCCCCC(CCCCCCCC)CNC(=O)CCCCCN(CC=C(C)C)CCN(CCO)CCCCCC(=O)NCC(CCCCCCCC)CCCCCCCC [Compound 122] | 6.817 | 0.066 | 65.77 nm | 93.47%
32 | CCCCCCCCC(CCCCCCCC)COC(=O)CCCCCN(CCO)CCN(CC=C(C)C)CCOCCC(=O)OCC(CCCCCCCC)CCCCCCCC [Compound 123] | 6.336 | 0.152 | 59.28 nm | 94.58%
33 | CCCCCCCCC(CCCCCCCC)COC(=O)CCCCCN(CCO)CCN(CCCCC)CCCCCC(=O)OCC(CCCCCCCC)CCCCCCCC [Compound 124] | 5.997 | 0.111 | 59.55 nm | 94.60%
34 | CCCCCCCCC(CCCCCCCC)COC(=O)CCCCCN(CC=C(C)C)CCN(CCCCCC(=O)OCC(CCCCCCCC)CCCCCCCC)C1CCC(O)CC1 (stereo not shown) [Compound 126] | 6.212 | 0.047 | 61.57 nm | 92.26%
